Data from patent US20070135374A1, “Composition for promoting collagen production” (OTSUKA PHARMACEUTICAL CO., LTD., priority 2003, published 2007).

How the values were obtained:
human skin fibroblasts [1] = assay: Collagen production promoting effect of AMP2Na on cultured human skin fibroblasts (PICP EIA), Test Example 1; format: cell-based; conditions: 2 days culture, culture supernatant, FIG. 1
Procedure: Evaluation of the collagen production promoting effect of adenosine monophosphate disodium on cultured human skin fibroblasts.
Primary-cultured human skin fibroblasts (manufactured by Kurabo Industries, Ltd.) were cultured in a 10 cm petri dish, and the cultured cells were collected in the subconfluent state and then freeze-preserved. Using the freeze-preserved cells, an evaluation of the collagen production promoting effect of adenosine monophosphate disodium (hereinafter, referred to as “AMP2Na) was conducted. In the following, the proportion of AMP2Na was based on the concentration of AMP.
1) The freeze-preserved cells were dissolved in an LSGS (Low Serum Growth Supplement)-containing liquid culture medium 106S (manufactured by Kurabo Industries, Ltd.), and the cell concentration and medium amount were adjusted to 30000 cells/100 μl. 100 μl of thus obtained cell-containing liquid was poured into each well of a test plate. […]
(§1) 4) Two days after culture initiation, the culture supernatant of each well was collected, and the amount of Procollagen type I C-peptide (PICP) was determined based on the amount of collagen in the culture supernatant using a Procollagen type I C-peptide (PIP) EIA Kit (manufactured by Takara Bio Inc.).

human skin fibroblasts [2] = assay: Collagen production promoting effect of combined use of AMP2Na and UMP2Na on cultured human skin fibroblasts (PICP EIA), Test Example 2; format: cell-based
Procedure: 1) The freeze-preserved cells were dissolved in an LSGS (Low Serum Growth Supplement)-containing liquid culture medium 106S (manufactured by Kurabo Industries, Ltd.), and the cell concentration and medium amount were adjusted to 30000 cells/100 μl. 100 μl of thus obtained cell-containing liquid was poured into each well of a test plate.
2) AMP2Na solutions of various concentrations were prepared using a sterilized phosphate buffer solution, and then filtered through a filter, followed by sterilization. The resultants were added to a liquid medium 106S (manufactured by Kurabo Industries, Ltd.) to prepare AMP2Na-containing culture media of various concentrations (0 to 1×10^−5 w/v %).
3) Twenty four hours after injecting cells into the plate wells, it was confirmed that human fibroblasts adhered to the wells, and the medium was removed from each well. Subsequently, an AMP2Na-containing culture medium (200 μl) of one of various concentrations prepared in 2) above was added to each well. The mixtures were cultured at 37° C. under 5% CO2 for two days.
as §1
Evaluation of the collagen production promoting effect of the combined use of adenosine monophosphate disodium and uridine monophosphate disodium on cultured human skin fibroblasts.
The evaluation of the collagen production promoting effect of cultured human skin fibroblasts was conducted following the same procedure of Test Example 1 above except for using such media. In Table 1, the proportions of AMP2Na and UMP2Na were based on the concentration of AMP and UMP, respectively.

| Structure (SMILES) | PICP amount relative to cells cultured in the AMP-free medium (human skin fibroblasts [1]; AMP2Na 1×10^−5 w/v % in medium) | PICP amount as compared with cells cultured in an AMP-free medium (human skin fibroblasts [1]; AMP2Na 1×10^−8 to 1×10^−5 w/v % in medium) | action of promoting collagen production (PICP concentration) (human skin fibroblasts [2]; AMP2Na alone 1×10^−6 w/v % (test medium 2) vs test medium 4, FIG. 2) | action of promoting collagen production (PICP concentration) (human skin fibroblasts [2]; UMP2Na alone 1×10^−8 w/v % (test medium 3) vs test medium 4, FIG. 2) | potentiation of the action of promoting collagen production of AMP2Na (PICP concentration) (human skin fibroblasts [2]; combined use: AMP2Na 1×10^−6 w/v % + UMP2Na 1×10^−8 w/v % (test medium 1), FIG. 2) |
| --- | --- | --- | --- | --- | --- |
| Nc1ncnc2c1ncn2[C@@H]1O[C@H](COP(=O)([O-])[O-])[C@@H](O)[C@H]1O.[Na+].[Na+] [AMP2Na, adenosine monophosphate disodium] | about 1.4 times | increased | has an action of promoting collagen production | – | – |
| O=c1ccn([C@@H]2O[C@H](COP(=O)([O-])[O-])[C@@H](O)[C@H]2O)c(=O)[nH]1.[Na+].[Na+] [UMP2Na, uridine monophosphate disodium] | – | – | – | no action of promoting collagen production | sharply potentiates |
